From patent US9518107B2, “Pharmaceutical compositions containing polypeptides derived from α-1 antitrypsin and methods of use thereof” (YISSUM RESEARCH DEVELOPMENT COMPANY OF THE HEBREW …, priority 2010, dated 2016)

How the values were obtained:
Female C57BL/6 mice = test: Experimental autoimmune encephalitis (EAE), MOG 35-55 induced, neurological score; format: in vivo; conditions: thrice a week
Method: (§1) Female C57BL/6 mice were injected subcutaneously into 4 sites on the back, adjacent to each of the forelimbs and hindlimbs (total amount 200 μl) with a myelin oligodendritic glycoprotein (MOG) 35-55 fragment emulsified with complete Freund's adjuvant. Thereafter, each animal was i.p. injected with pertusis toxin (PTX; 200 ng/mouse) in PBS and an additional
PTX injection was repeated 2 days later, which is a standard protocol for initiating experimental autoimmune encephalomyelitis (EAE) in mice. UBE polypeptide (SEQ ID NO:2) was intraperitoneally (i.p.) injected (0.3 μg/kg, thrice a week) five days after MOG immunization (day of onset of symptoms). The animals were evaluated for neurological score from 0 (no effect) to 6 (severe neurological symptoms including paralysis). Results are the mean±SE of neurological score (sum of all scores divided by the number of animals in each experimental group) at each of the indicated time intervals after MOG injection.
as §1, with “additional PTX injection was repeated 2 days later. Four days after MOG immunization, each mouse received i.p. injections (1 μg/kg, thrice a week) of each of the following polypeptides:” for “additional”
The animals were evaluated for neurological score from 0 (no effect) to 6 (severe neurological symptoms including paralysis). Results are the mean±SE of neurological score (sum of all scores divided by the number of animals in each experimental group) at each of the indicated time intervals after immunization.

male MRL/lpr mice = test: Advanced stage of Systemic Lupus Erythematosus in MRL/lpr mice; format: in vivo; conditions: 1 μg/kg thrice a week from age of 22 weeks, 22 days; FIG. 10
Method: UBE (SEQ ID NO: 2; 1 μg/kg) was administered to male MRL/lpr mice thrice a week, starting at age of 22 weeks. At this age the mice are acutely affected and show a high level of proteinuria. Urine was obtained by spontaneous urination and the animals' urinary protein levels (mg/dl) were evaluated throughout the treatment period (22 days) using a commercial stick.

Female NZBW/F1 mice [1] = test: Spontaneous lupus-like syndrome in NZBW/F1 mice (second SLE model); format: in vivo
Method: Female NZBW/F1 mice develop a lupus-like syndrome spontaneously. UBE (SEQ ID NO:2) (0.3 μg/kg) was administered to female NZBW/F1 mice daily (except for Saturday and Holidays), starting at the indicated time point (170 days) (n=10). Urine was obtained by spontaneous urination and the levels of protein (mg/dl) in the urine were evaluated throughout the treatment period using commercial sticks.
Quantitative histopathology analysis of the kidneys and lungs were also performed for this model (FIG. 12A-D). Kidneys were removed from control and UBE treated mice (0.3 lug/kg) then fixed in formalin, sliced, and stained by H&E. Representative histophathologies of the control versus UBE treated mice is shown FIGS. 12A versus 12B at 10× magnification, respectively. Note glomerular sclerosis (GS), thickening glomerular mesangium (G), protein accumulation in tubular lumen (PC), interstitial fibrosis (I) and perivascular lymphoid infiltration (lymphoid) in the control (12A) while normal appearance of kidney in the UBE-treated group (12B). The quantitative histopathology analysis with regard to tubular and interstitial damage is presented in FIG. 12C and FIG. 12D, respectively.
Quantitative histopathology analysis of the lungs was also performed for this model (FIG. 12E-G). Representative histophathologies of control versus UBE treated mice (0.3 μg/kg) is shown FIGS. 12E versus 12F at 10× magnification, respectively. Note heavy perivascular lymphoid infiltration (lymphoid) in the control samples (FIG. 12E) while normal appearance in the UBE-treated group (FIG. 12F).
In order to determine the levels of anti-dsDNA antibodies, blood was obtained by cardiac puncture of the NZBW/F1 mice at the indicated endpoint in UBE treatment, and the serum levels of anti-dsDNA antibodies and BLys (B lymphocyte stimulator) levels were determined by ELISA using a commercial kit (R&D Systems, Minneapolis, Minn., USA).
To evaluate the effect of UBE on lymphocyte function in NZBW/F1 mice, spleen cells and blood samples were isolated from control and UBE-treated (0.3 microgram per kilogram) mice and subjected to FACS analysis of double negative CD4−CD8− (expressed as percent CD3+) (FIG. 14).
Blood cells were similarly evaluated and representative results from control and UBE treated animals (0.3 μg/kg) are shown in FIGS. 14D and 14E, respectively.

HaCaT keratinocytes = test: HaCaT keratinocyte proliferation (MTT assay); format: cell-based; conditions: FIG. 18
Method: Cells (1.6×10^4/ml) were seeded (100 μl) in culture medium in 96 well plate. Twenty four hours later UBE was added at the indicated concentrations. Cell viability was determined by the MTT assay.

Female Balb/C mice = test: Ovalbumin-induced asthma in mice, eosinophils in bronchoalveolar lavage; format: in vivo; conditions: UBE i.n. 50 ng/mouse on days 24 and 27, one hour before OVA; day 29; FIG. 21
Method: 20 ul of 5% Ovalbumin (OVA) was added to 8.75 ml of sterile saline, which was then added stepwise to a solution of 1.25 ml of 40 mg/ml ImjectAlum (Pierce), and subjected to rocking at room temperature for 30-60 minutes, to facilitate optimal alum absorption to the Ovalbumin (Alum/Ova). Female Balb/C mice were then injected with 200 ul of Alum/Ova i.p, according to the following protocol:
On Days 0 and 14, mice were injected i.p with OVA/Alum.
On day 24 mice were injected intranasally (i.n.) with. UBE/saline (50 ng/50 μl/mouse, 25 μl to each nostril) and then after one hour, mice were injected i.n with OVA (50 μg/50 μl/mouse, 25 μl to each nostril).
On Day 27, mice were injected i.n. UBE/saline (50 ng/50 μl/mouse, 25 μl to each nostril) and then 1 hour subsequently were again injected i.n. with OVA (50 μg/50 μl/mouse). Mice were then sacrificed on day 29, and bronchoalveolar fluid was obtained by lung lavage (1 ml of 10% FCS-heat inactivated in PBS), and the percent of eosinophils seen in lavage fluid versus white cell count was ascertained by microscopic evaluation of smears.

Female NZBW/F1 mice [2] = test: Spontaneous lupus-like syndrome in NZBW/F1 mice (second SLE model); format: in vivo; conditions: FIG. 11B

“SMPPIVRFDHPFLFIIFEEHTQSPLFVGKVVDPTHK (listed as Mus musculus) [UBE, 36-mer peptide corresponding to residues 378-413 of Mus musculus alpha-1-antitrypsin (serpin a1c)]” was tested, and the “neurological symptoms (neurological score 0 to 6)” value (Female C57BL/6 mice; i.p. 0.3 μg/kg, from five days after MOG immunization, FIG. 2) was “reduced the neurological symptoms”, the “neurological symptoms (neurological score 0 to 6)” value (Female C57BL/6 mice; i.p. 1 μg/kg, from four days after MOG immunization, FIG. 3) was “reduced the neurological symptoms” and the “proteinuria (urinary protein)” value (male MRL/lpr mice) was “significant reduction”. The “rise in urinary protein levels (proteinuria)” value (Female NZBW/F1 mice [1]; UBE 0.3 μg/kg daily from 170 days, FIG. 11A) was “abrogated”, the “pathological score of the tubular areas (kidney histopathology)” value (Female NZBW/F1 mice [1]; UBE 0.3 μg/kg, FIG. 12C) was “significant reduction” and the “pathological score of the interstitial areas (kidney histopathology)” value (Female NZBW/F1 mice [1]; UBE 0.3 μg/kg, FIG. 12D) was “significant reduction”. For the same sequence, the “pathological score, lung parenchymal damage” value (Female NZBW/F1 mice [1]; UBE 0.3 μg/kg, FIG. 12G) was “significant reduction”, the “serum BLys (B lymphocyte stimulator) level, ELISA” value (Female NZBW/F1 mice [1]; UBE 0.3 μg/kg, FIG. 13A) was “significant reduction” and the “serum anti-dsDNA antibody level, ELISA” value (Female NZBW/F1 mice [1]; UBE 0.3 μg/kg, FIG. 13B) was “significant reduction”. The “double negative CD4−CD8− cells, FACS” value (Female NZBW/F1 mice [1]; blood, UBE 0.3 μg/kg, FIG. 14F) was “dramatically reduced”, the “double negative CD4−CD8− cells (percent CD3+), FACS” value (Female NZBW/F1 mice [1]; spleen, UBE 0.3 μg/kg, FIG. 14C) was “dramatically reduced” and the “effect on cultured keratinocyte proliferation (cell viability, MTT)” value (HaCaT keratinocytes) was “anti-proliferative effect”. The “eosinophil concentration in lavage fluid (percent of eosinophils versus white cell count)” value (Female Balb/C mice) was “dramatic reduction”, the proteinuria (Female NZBW/F1 mice [2]; UBE 1 μg/kg) was “reduced proteinuria in a significant manner” and the proteinuria (Female NZBW/F1 mice [2]; UBE 3 μg/kg) was “reduced proteinuria in a significant manner”.
